{
  "source": "patent US20180265911A1",
  "about": "“TRIPTYCENE DERIVATIVES FOR NUCLEIC ACID JUNCTION STABILIZATION” (THE TRUSTEES OF THE UNIVERSITY OF PENNSYLVANIA, priority 2015, published 2018)",
  "key": {"[1]": {"system": "DNA 3WJ", "assay": "UV thermal melting of DNA 3WJ (Example 1)", "assay_type": "binding", "conditions": "Example 1 numbering, DNA 3WJ 1 μM, ligand 4 μM, 10 mM CacoK pH 7.2", "protocol": "(§1) An aqueous solution of 10 mM potassium cacodylate (CacoK), pH 7.2 was used as analysis buffer. DNA 3WJ and dsDNA were brought to a final concentration of 1 1.1.1\\4 and 2 μM, respectively. Samples were heated to 90° C. for 5 min, cooled to room temperature slowly, then to 4° C. Samples were incubated for 1 hour at room temperature with 3 μL of ligand at a final concentration of 4 μM for DNA 3WJ. The concentration of the ligand was 8 μM for dsDNA. Denaturation was recorded at 260 nm from 5° C. to 90° C. with a heating rate of 0.5° C. min^−1. Upper and lower baselines were used to plot the fraction folded."}, "[2]": {"system": "dsDNA", "assay": "UV thermal melting of dsDNA (Example 1)", "assay_type": "binding", "conditions": "Example 1 numbering, dsDNA 2 μM, ligand 8 μM, 10 mM CacoK pH 7.2", "protocol": "as §1"}, "[3]": {"system": "A2780cis cells", "assay": "Alamar blue cytotoxicity assay, A2780cis", "assay_type": "cell-based, human", "protocol": "(§2) All cell lines were maintained in a humidified incubator at 37° C. in 5% CO2. A2780 and A2780cis cells were cultured in RPMI 1640 (Corning Cellgro) supplemented with 10% fetal bovine serum (Giboc, Life Technologies), 1% L-glutamine (Corning Cellgro), penicillin and streptomycin (Corning Cellgro). Cells were seeded at a density of 2,000 cells/well in culture media (50 pt) in […] plates 24 hours prior to treatment. Cells were treated with DMSO (vehicle control), doxorubicin (positive control, 10 μM final), cisplatin (50 μM to 25 nM), or triptycenes (50 μM to 25 nM) for 72 hours at 37° C. with 5% CO2. DMSO concentrations were kept at 1%. Alamar blue (5 μL) was added and incubated for 4 hours. Fluorescence was measured at 590 nm. The vehicle control was taken as 100% cell viability and doxorubicin was taken as 0% viability."}, "[4]": {"system": "A2780 cells", "assay": "Alamar blue cytotoxicity assay, A2780", "assay_type": "cell-based, human", "conditions": "Example 1 numbering, 72 hours, viability shown at 50 μM", "protocol": "as §2"}, "[5]": {"system": "d(CAG)n(CTG) repeat nucleic acid junction", "assay": "Fluorescence quenching assay, TNR 3WJ (Example 5)", "assay_type": "binding", "conditions": "comparison in words", "protocol": "Fluorescence Quenching Assay: All experiments were conducted in 50 mM sodium phosphate buffer, pH 7.2. Fluorescence measurements were recorded with excitation at 495 nm and emission at 520 nm using 5 nm bandwidths on a Tecan M1000 plate reader. […] Samples were incubated for 2h and measured in triplicate in a 384-well plate."}},
  "data": [
    {"smiles": "CN(CCCN)CCCNC(=O)c1ccccc1", "note": "[Compound 4 (Example 1), N-(3-((3-aminopropyl)(methyl)amino)propyl)benzamide]", "values": [
      {"measurement": "ΔTm, stabilization of DNA 3WJ", "setting": "[1]", "value": 2.0, "unit": "°C"},
      {"measurement": "ΔTm, dsDNA", "setting": "[2]", "value": "−1.3", "unit": "°C"}
    ]},
    {"smiles": "NCCCCCCCNC(=O)c1ccc2c(c1)C1c3ccc(C(=O)NCCCCCCCN)cc3C2c2cc(C(=O)NCCCCCCCN)ccc21", "note": "[Trip 2 (Example 1), N^2,N^6,N^14-tris(7-aminoheptyl)-9,10-dihydro-9,10-[1,2]benzenoanthracene-2,6,14-tricarboxamide]", "values": [
      {"measurement": "viability of A2780cis cells", "setting": "[3]; 50 µM", "value": 6, "unit": "%"}
    ]},
    {"smiles": "CN(C)CCCNC(=O)c1ccc2c(c1)C1c3ccc(C(=O)NCCCN(C)C)cc3C2c2cc(C(=O)NCCCN(C)C)ccc21", "note": "[Trip 3 (Example 1), N^2,N^6,N^14-tris(3-(dimethylamino)propyl)-9,10-dihydro-9,10-[1,2]benzenoanthracene-2,6,14-tricarboxamide]", "values": [
      {"measurement": "cytotoxicity in A2780cis cells", "setting": "[3]; Example 1 numbering, cisplatin-resistant line, Alamar blue, 72 hours, viability shown at 50 μM", "value": "No cytotoxic activity"},
      {"measurement": "cytotoxicity in A2780 cells", "setting": "[4]", "value": "No cytotoxic activity"}
    ]},
    {"smiles": "NCCCCC(N)C(=O)Nc1ccc2c(c1)C1c3ccc(NC(=O)C(N)CCCCN)cc3C2c2cc(NC(=O)C(N)CCCCN)ccc21", "note": "[Trip 3 (Example 3), (2S,2'S,2″S)—N,N′,N″-(9,10-dihydro-9,10-[1,2]benzenoanthracene-2,7,15-triyl)tris(2,6-diaminohexanamide)]", "values": [
      {"measurement": "relative binding affinity toward the TNR junction", "setting": "[5]", "value": "highest affinity"}
    ]},
    {"smiles": "NC(Cc1cnc[nH]1)C(=O)Nc1ccc2c(c1)C1c3ccc(NC(=O)C(N)Cc4cnc[nH]4)cc3C2c2cc(NC(=O)C(N)Cc3cnc[nH]3)ccc21", "note": "[Trip 4 (Example 3), (2S,2′S,2″S)—N,N′,N″-(9,10-dihydro-9,10-[1,2]benzenoanthracene-2,7,15-triyl)tris(2-amino-3-(1H-imidazol-5-yl)propanamide)]", "values": [
      {"measurement": "relative binding affinity toward the TNR junction", "setting": "[5]", "value": "highest affinity"}
    ]}
  ]
}
